Data taken from paper PMC6718324 (European journal of medicinal chemistry, 2019).

Experiments:
hCAR [1] = assay: hCAR nuclear translocation assay in HPH; type: cell-based, human; details: Ad-EYFP-hCAR-infected HPH, 1 μM, 8 h
[2] = cited from earlier work
hCAR [3] = molecular target: T1, hCAR (Homo sapiens, UniProt Q14994); assay: hCAR agonist luciferase reporter gene assay; type: cell-based; details: for fold decrease in potency (EC50) compared to compound 2: hCAR EC50 vs parent compound 2; for hCAR agonist activity (in words): hCAR luciferase reporter
T1 sequence (Q14994 1-348 isoform Q14994-2): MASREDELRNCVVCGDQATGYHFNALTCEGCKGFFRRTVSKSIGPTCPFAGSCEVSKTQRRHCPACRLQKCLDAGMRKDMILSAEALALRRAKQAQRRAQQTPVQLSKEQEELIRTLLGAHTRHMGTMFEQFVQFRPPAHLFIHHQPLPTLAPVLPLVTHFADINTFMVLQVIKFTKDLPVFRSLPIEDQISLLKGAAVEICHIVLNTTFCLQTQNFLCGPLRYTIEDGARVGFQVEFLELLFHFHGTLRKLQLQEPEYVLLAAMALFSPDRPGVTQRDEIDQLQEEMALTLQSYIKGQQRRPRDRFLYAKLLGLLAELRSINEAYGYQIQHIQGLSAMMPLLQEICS
T1 sequence (P19793 1-462 partner): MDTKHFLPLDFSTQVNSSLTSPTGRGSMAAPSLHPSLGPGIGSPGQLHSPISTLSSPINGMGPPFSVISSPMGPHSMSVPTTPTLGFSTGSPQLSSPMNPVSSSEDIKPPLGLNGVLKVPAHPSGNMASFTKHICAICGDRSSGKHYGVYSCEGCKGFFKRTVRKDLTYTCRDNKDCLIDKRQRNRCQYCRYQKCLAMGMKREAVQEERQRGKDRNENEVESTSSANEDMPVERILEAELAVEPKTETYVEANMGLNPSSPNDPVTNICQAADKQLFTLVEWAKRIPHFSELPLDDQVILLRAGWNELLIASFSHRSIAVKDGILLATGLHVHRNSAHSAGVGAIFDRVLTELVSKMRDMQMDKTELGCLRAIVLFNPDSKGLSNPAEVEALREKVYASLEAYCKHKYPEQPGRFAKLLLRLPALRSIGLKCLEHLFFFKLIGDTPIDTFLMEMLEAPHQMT

hPXR = molecular target: T2, hPXR (Homo sapiens, UniProt O75469); assay: HepG2 cell reporter assay, hPXR activation; type: cell-based; details: 1 μM; for hPXR activation in HepG2 cell reporter assay (in words): normalized against rifampicin; for selectivity for hCAR over hPXR (in words): HepG2 cell reporter assays
T2 sequence (O75469 1-434): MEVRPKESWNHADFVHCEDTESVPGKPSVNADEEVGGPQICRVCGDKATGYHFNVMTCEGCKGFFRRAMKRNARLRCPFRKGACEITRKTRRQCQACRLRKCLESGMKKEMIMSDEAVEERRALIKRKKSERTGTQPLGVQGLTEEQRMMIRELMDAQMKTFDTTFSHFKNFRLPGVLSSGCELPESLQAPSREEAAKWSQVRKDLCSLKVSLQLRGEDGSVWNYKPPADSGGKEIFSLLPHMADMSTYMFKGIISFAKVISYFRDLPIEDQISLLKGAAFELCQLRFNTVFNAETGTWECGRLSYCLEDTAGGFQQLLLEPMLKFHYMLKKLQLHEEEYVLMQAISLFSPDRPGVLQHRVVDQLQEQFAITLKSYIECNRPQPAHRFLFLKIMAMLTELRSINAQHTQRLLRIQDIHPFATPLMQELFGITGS

hCAR [4] = assay: HepG2 cell reporter assay, hCAR activation; type: cell-based, human; details: 1 μM; normalized against CITCO
SU-DHL-4 cells = assay: CHOP-mediated cytotoxicity in HPH/SU-DHL-4 co-culture; type: cell-based, human
Stability = type: physicochemical

## Clc1ccc(-c2nc3sccn3c2/C=N/OCc2ccc(Cl)c(Cl)c2)cc1 [CITCO, 6-(4-chlorophenyl)imidazo-[2,1-b]thiazole-5-carbaldehyde-O-(3,4-dichlorobenzyl)oxime, reference compound]
hCAR [1]
  hCAR translocation from cytoplasm to nucleus (in words): efficiently translocated into the nucleus
[2]
  stability of results in hCAR luciferase gene reporter assay (in words): unstable results

## Clc1ccc(-c2nc3sccn3c2CNCCc2ccc(Cl)c(Cl)c2)cc1 [Compound 2, N-((6-(4-Chlorophenyl)imidazo[2,1-b]thiazol-5-yl)methyl)-2-(3,4-dichlorophenyl)ethan-1-amine]
hCAR [3]; hCAR EC50 vs CITCO
  fold increase in potency compared to CITCO: 1.4 fold

## Clc1ccc(-c2nc3sccn3c2COCCc2ccc(Cl)c(Cl)c2)cc1 [Compound 5, 6-(4-Chlorophenyl)-5-((3,4-dichlorophenethoxy)methyl)imidazo[2,1-b]thiazole]
hPXR
  hPXR activation in HepG2 cell reporter assay (in words): significantly activated hPXR

## Cc1cn2c(CNCCc3ccc(Cl)c(Cl)c3)c(-c3ccc(Cl)cc3)nc2s1 [Compound 6, N-((6-(4-Chlorophenyl)-2-methylimidazo[2,1-b]thiazol-5-yl)methyl)-2-(3,4-dichlorophenyl)ethan-1-amine]
hCAR [3]
  fold decrease in potency (EC50) compared to compound 2: 5.5 fold

## Clc1ccc(-c2nc3occn3c2CNCCc2ccc(Cl)c(Cl)c2)cc1 [Compound 7, N-((6-(4-Chlorophenyl)imidazo[2,1-b]oxazol-5-yl)methyl)-2-(3,4-dichlorophenyl)ethan-1-amine]
hCAR [3]
  fold decrease in potency (EC50) compared to compound 2: 3.2 fold
hPXR
  selectivity for hCAR over hPXR (in words): good specificity for hCAR
hCAR [4]
  hCAR activation in HepG2 cell reporter assay (in words): slight decrease in hCAR activation potency

## Clc1ccc(-c2nc3ncccn3c2CNCCc2ccc(Cl)c(Cl)c2)cc1 [Compound 8, N-((2-(4-Chlorophenyl)imidazo[1,2-a]pyrimidin-3-yl)methyl)-2-(3,4-dichlorophenyl)ethan-1-amine]
hCAR [3]
  fold decrease in potency (EC50) compared to compound 2: 2 fold
hCAR [4]
  hCAR activation in HepG2 cell reporter assay (in words): less potent compared to CITCO

## Clc1ccc(CCNCc2c(-c3ccc(Cl)cc3)nc3sccn23)cc1 [Compound 9, 2-(4-Chlorophenyl)-N-((6-(4-chlorophenyl)imidazo[2,1-b]thiazol-5-yl)methyl)ethan-1-amine]
hCAR [3]
  fold decrease in potency (EC50) compared to compound 2: 1.6 fold
hPXR
  selectivity for hCAR over hPXR (in words): maintaining selectivity for hCAR against hPXR

## Clc1ccc(-c2nc3sccn3c2CNCCc2cccc(Cl)c2)cc1 [Compound 10, 2-(3-Chlorophenyl)-N-((6-(4-chlorophenyl)imidazo[2,1-b]thiazol-5-yl)methyl)ethan-1-amine]
hCAR [3]
  fold decrease in potency (EC50) compared to compound 2: 7 fold

## Clc1ccc(-c2nc3sccn3c2CNCCc2ccccc2)cc1 [Compound 14, N-((6-(4-Chlorophenyl)imidazo[2,1-b]thiazol-5-yl)methyl)-2-phenylethan-1-amine]
hCAR [3]
  hCAR agonist activity (in words): potent hCAR agonist
hPXR
  selectivity for hCAR over hPXR (in words): maintaining selectivity for hCAR against hPXR

## Clc1ccc(-c2nc3sccn3c2CNCc2ccccc2)cc1 [Compound 15, N-Benzyl-1-(6-(4-chlorophenyl)imidazo[2,1-b]thiazol-5-yl)methanamine]
hCAR [3]; hCAR EC50, analog one CH2 shorter than 14
  fold decrease in potency compared to compound 14: over 11 fold

## Clc1ccc(-c2nc3sccn3c2CNC2Cc3ccccc3C2)cc1 [Compound 17, N-((6-(4-Chlorophenyl)imidazo[2,1-b]thiazol-5-yl)methyl)-2,3-dihydro-1H-inden-2-amine]
hPXR
  selectivity for hCAR over hPXR (in words): maintaining selectivity for hCAR against hPXR

## Clc1ccc(-c2nc3sccn3c2CNc2ccc3ccccc3c2)cc1 [Compound 18, N-((6-(4-Chlorophenyl)imidazo[2,1-b]thiazol-5-yl)methyl)naphthalen-2-amine]
hCAR [3]
  hCAR agonist activity (in words): inactive

## CCc1nc2sccn2c1CNCCc1ccc(Cl)c(Cl)c1 [Compound 19, 2-(3,4-Dichlorophenyl)-N-((6-ethylimidazo[2,1-b]thiazol-5-yl)methyl)ethan-1-amine]
hCAR [3]
  hCAR agonist activity (in words): dramatic drop in hCAR activity

## Clc1cccc(-c2nc3sccn3c2CNCCc2ccc(Cl)c(Cl)c2)c1 [Compound 20, N-((6-(3-Chlorophenyl)imidazo[2,1-b]thiazol-5-yl)methyl)-2-(3,4-dichlorophenyl)ethan-1-amine]
hCAR [3]
  fold decrease in potency (EC50) compared to compound 2: 2.3 fold

## FC(F)(F)c1ccc(-c2nc3sccn3c2CNCCc2ccc(Cl)c(Cl)c2)cc1 [Compound 22, 2-(3,4-Dichlorophenyl)-N-((6-(4-(trifluoromethyl)phenyl)imidazo[2,1-b]thiazol-5-yl)methyl)ethan-1-amine]
hCAR [3]
  hCAR agonist activity (in words): much weaker agonist

## Fc1ccc(-c2nc3sccn3c2CNCCc2ccc(Cl)c(Cl)c2)cc1 [Compound 23, 2-(3,4-Dichlorophenyl)-N-((6-(4-fluorophenyl)imidazo[2,1-b]thiazol-5-yl)methyl)ethan-1-amine]
hCAR [4]
  hCAR activation in HepG2 cell reporter assay (in words): slightly decreased activation potency

## Clc1ccc(CCNCc2c(-c3ccccc3)nc3sccn23)cc1Cl [Compound 24, 2-(3,4-Dichlorophenyl)-N-((6-phenylimidazo[2,1-b]thiazol-5-yl)methyl)ethan-1-amine]
hCAR [4]
  hCAR activation in HepG2 cell reporter assay (in words): slightly decreased activation potency

## N#Cc1ccc(-c2nc3sccn3c2CNCCc2ccc(Cl)c(Cl)c2)cc1 [Compound 27, 4-(5-(((3,4-Dichlorophenethyl)amino)methyl)imidazo[2,1-b]thiazol-6-yl)benzonitrile]
hCAR [3]
  hCAR agonist activity (in words): significantly less active

## CC(C)(C)c1ccc(-c2nc3sccn3c2CNCCc2ccc(Cl)c(Cl)c2)cc1 [Compound 28, N-((6-(4-(tert-Butyl)phenyl)imidazo[2,1-b]thiazol-5-yl)methyl)-2-(3,4-dichlorophenyl)ethan-1-amine]
hCAR [3]
  hCAR agonist activity (in words): significantly less active

## Clc1ccc(CCNCc2c(-c3ccc4ccccc4c3)nc3sccn23)cc1Cl [Compound 29, 2-(3,4-Dichlorophenyl)-N-((6-(naphthalen-2-yl)imidazo[2,1-b]thiazol-5-yl)methyl)ethan-1-amine]
hCAR [3]
  fold decrease in potency (EC50) compared to compound 2: 3 fold
hPXR
  selectivity for hCAR over hPXR (in words): retained selectivity for hCAR over hPXR
hCAR [4]
  hCAR activation in HepG2 cell reporter assay (in words): slight increase in activation of hCAR

## c1ccc(CCNCc2c(-c3ccc4ccccc4c3)nc3sccn23)cc1 [Compound 30, N-((6-(Naphthalen-2-yl)imidazo[2,1-b]thiazol-5-yl)methyl)-2-phenylethan-1-amine]
hPXR
  hPXR activation in HepG2 cell reporter assay (in words): significantly activated hPXR

## c1ccc2c(c1)CC(NCc1c(-c3ccc4ccccc4c3)nc3sccn13)C2 [Compound 31, N-((6-(Naphthalen-2-yl)imidazo[2,1-b]thiazol-5-yl)methyl)-2,3-dihydro-1H-inden-2-amine]
hPXR
  hPXR activation in HepG2 cell reporter assay (in words): slightly increased
hCAR [4]
  hCAR activation in HepG2 cell reporter assay (in words): enhanced hCAR activation over CITCO

## c1ccc2c(c1)CC(NCc1c(-c3ccc4ccccc4c3)nc3occn13)C2 [DL5016, N-((6-(Naphthalen-2-yl)imidazo[2,1-b]oxazol-5-yl)methyl)-2,3-dihydro-1H-inden-2-amine]
hCAR [1]
  hCAR translocation from cytoplasm to nucleus (in words): efficiently translocated into the nucleus
hPXR
  selectivity for hCAR over hPXR (in words): maintaining selectivity over hPXR
SU-DHL-4 cells; DL5016 1 μM with CHOP, 24 h
  effect on CHOP-induced cytotoxicity in SU-DHL-4 cells (in words): significantly enhanced CHOP-induced cytotoxicity
SU-DHL-4 cells; control experiment without CHOP
  cytotoxicity of compound alone in co-cultured SU-DHL-4 cells (in words): did not show cytotoxicity
hCAR [4]
  hCAR activation in HepG2 cell reporter assay (in words): significant improvement in hCAR activation over CITCO
Stability
  stability (in words): excellent stability
